The source of these data is patent publication US20230391845A1, “GLP-1, GIP AND GLUCAGON RECEPTOR TRIPLE AGONISTS” (priority 2020, published 2023).

Molecules are shown by their SMILES. Where two headings read alike, the source gives them in different places. *1 amine or outer side, *2 acyl side, *3 side chain or, on linkers, in order; H or OH if unused. Where a SMILES comes first, the peptide text is derived from it. Side-chain parts run from the residue outwards. [ ]: non-standard residue; d: D form. The star is where a group is joined. C18 diacid = O=C(O)CCCCCCCCCCCCCCCCC(=O)*; γGlu = O=C(O)[C@H](CCC(=O)[*:2])N[*:1]; εLys = N[C@@H](CCCCN[*:1])C(=O)[*:2]; AEEA = NCCOCCOCC(=O)O; Aib = CC(C)(N)C(=O)O

For one data set, the target named is T1, human GLP-1 receptor (Homo sapiens, UniProt P43220).
T1 construct: expressed in transfected cells; host or cells: BHK cells (parent line BHKTS13) containing CRE luciferase
Description: In vitro functional potency (CRE luciferase; whole cells), human GLP-1R. Particulars: BHK CRE luc2P hGLP-1R whole cells; for EC50: read-out: hGLP-1R CRE Luc EC50. In kind it is cell-based.

A further data set concerns the target T2, human Gcg receptor (Homo sapiens, UniProt P47871).
T2 construct: expressed in transfected cells; host or cells: BHK cells (parent line BHKTS13) containing CRE luciferase
Kind of data set: In vitro functional potency (CRE luciferase; whole cells), human GcgR. In kind it is cell-based. The following applies: BHK CRE luc2P hGcgR whole cells; for EC50: read-out: hGcgR CRE Luc EC50.

In the next data set the target is T3, human GIP receptor (Homo sapiens, UniProt P48546).
T3 construct: expressed in transfected cells; host or cells: BHK cells (parent line BHKTS13) containing CRE luciferase
T3 sequence (P48546 22-466): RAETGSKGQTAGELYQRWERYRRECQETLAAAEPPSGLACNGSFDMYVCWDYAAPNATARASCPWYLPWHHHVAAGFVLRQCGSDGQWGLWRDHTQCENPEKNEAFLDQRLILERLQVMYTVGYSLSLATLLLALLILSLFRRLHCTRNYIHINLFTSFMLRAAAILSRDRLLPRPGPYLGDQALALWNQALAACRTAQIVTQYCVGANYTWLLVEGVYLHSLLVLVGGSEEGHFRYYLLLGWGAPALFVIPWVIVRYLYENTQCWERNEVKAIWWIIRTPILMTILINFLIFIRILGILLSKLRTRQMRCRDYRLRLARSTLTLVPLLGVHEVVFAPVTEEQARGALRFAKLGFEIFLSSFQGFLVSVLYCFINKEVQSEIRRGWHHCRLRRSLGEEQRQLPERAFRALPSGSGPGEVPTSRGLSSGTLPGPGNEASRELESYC
Kind of data set: In vitro functional potency (CRE luciferase; whole cells), human GIPR. In kind it is cell-based. The following applies: BHK CRE luc2P hGIPR whole cells, Table 1, position of substituent varied; for EC50: read-out: hGIPR CRE Luc EC50.

Data set [1] is described as follows: Pharmacokinetic study in minipigs, i.v. administration. Details: species or system Göttingen minipigs. Particulars: female, Göttingen, minipig, in vivo, iv. A digest of the protocol: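 Female Göttingen minipigs (7-14 months, 16-35 kg), fasted ~18 h pre-dose to 4 h post-dose, received i.v. injections of usually 1.5-2 nmol/kg via central venous catheter. Plasma sampled up to 14 days, assayed by ELISA or LCMS; terminal half-life (harmonic mean) from non-compartmental analysis.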

Where [2] appears, read: Table 1, position of substituent varied.

T1 sequence (P43220 24-463): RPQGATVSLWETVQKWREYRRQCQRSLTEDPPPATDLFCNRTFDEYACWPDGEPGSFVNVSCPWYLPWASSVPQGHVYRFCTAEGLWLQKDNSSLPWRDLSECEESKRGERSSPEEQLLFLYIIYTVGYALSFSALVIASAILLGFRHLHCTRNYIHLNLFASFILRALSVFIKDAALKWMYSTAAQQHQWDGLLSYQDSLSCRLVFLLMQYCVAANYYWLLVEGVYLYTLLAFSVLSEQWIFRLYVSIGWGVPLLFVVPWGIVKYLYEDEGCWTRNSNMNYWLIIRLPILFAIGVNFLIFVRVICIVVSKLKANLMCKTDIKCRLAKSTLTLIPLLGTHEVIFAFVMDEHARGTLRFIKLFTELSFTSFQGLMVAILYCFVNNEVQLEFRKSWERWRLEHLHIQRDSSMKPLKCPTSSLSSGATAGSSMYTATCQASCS
T2 sequence (P47871 26-477): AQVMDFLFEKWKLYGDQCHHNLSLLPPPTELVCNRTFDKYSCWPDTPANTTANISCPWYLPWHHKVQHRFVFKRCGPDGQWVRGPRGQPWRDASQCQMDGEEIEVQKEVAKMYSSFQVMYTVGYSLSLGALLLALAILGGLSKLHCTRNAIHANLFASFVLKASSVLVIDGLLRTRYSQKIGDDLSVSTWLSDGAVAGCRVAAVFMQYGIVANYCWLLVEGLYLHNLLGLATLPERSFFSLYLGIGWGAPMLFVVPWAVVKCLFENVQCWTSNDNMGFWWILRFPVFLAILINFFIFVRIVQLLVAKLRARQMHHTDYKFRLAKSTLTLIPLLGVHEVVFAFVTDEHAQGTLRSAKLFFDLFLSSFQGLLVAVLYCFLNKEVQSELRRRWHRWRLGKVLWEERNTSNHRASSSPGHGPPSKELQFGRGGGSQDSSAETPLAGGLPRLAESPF
Description for human GIP receptor: (§1) The purpose of this example is to test the functional activity, or potency, of the compounds in vitro at the human and mouse GLP-1, GIP, and Gcg receptors. The in vitro functional potency is the measure of target receptor activation in a whole cell assay.
(§2) In vitro functional potency was determined by measuring the response of the target receptor in a reporter gene assay in individual cell lines. The assay was performed in stably transfected BHK cell lines that expresses one of the following G-protein coupled receptors: human GLP-1 receptor, human GIP receptor, human Gcg receptor, mouse GLP-1 receptor, mouse GIP receptor, or mouse Gcg receptor; and where each cell line contains the DNA for the cAMP response element (CRE) coupled to a promoter and the gene for firefly luciferase (CRE luciferase). When the respective receptor is activated, it results in the production of cAMP, which in turn results in expression of the luciferase protein. When assay incubation is completed, luciferase substrate (luciferin) is added resulting in the enzymatic conversion of luciferin to oxyluciferin and producing bioluminescence. The luminescence is measured as the readout for the assay.
(§3) The cells lines used in these assays were BHK cells with BHKTS13 as a parent cell line. The cell lines were derived from a clone containing the CRE luciferase element and were established by further transfection with the respective receptor to obtain the relevant cell line.
(§4) The cells were cultured at 37° C. with 5% CO2 in Cell Culture Medium. They were aliquoted and stored in liquid nitrogen. The cells were kept in continuous culture and were seeded out the day before each assay.
(§5) GLP-1R and GcgR Cell Culture Medium consisted of DMEM medium with 10% FBS, 500 µg/mL G418, and 300 µg/mL hygromycin. GIPR Cell Culture Medium consisted of DMEM medium with 10% FBS, 400 µg/mL G418, and 300 µg/mL hygromycin. Assay Buffer consisted of DMEM w/o phenol red, 10 mM Hepes, 1× Glutamax, 1% ovalbumin, and 0.1% Pluronic F-68.
(§6) • 1) Cells were plated at 5000 cells/well and incubated overnight in the assay plate. • 2) Cells were washed once in DPBS. • 3) Stocks of the test compounds and reference compounds in concentrations ranging from 100-300 pM were diluted 1:150 in Assay Buffer.
(§7) The data from the microtiter plate reader was first regressed in an Excel in order to calculate the x-axis, log scale concentrations based on the individual test compound's stock concentration and the dilutions of the assay. […] The software performs a non-linear regression (log(agonist) vs response). A minimum of two replicates was measured for each sample. The reported values are averages of the replicates.
Description for human Gcg receptor: as §1, §2, §3, §4, §5, §6, §7

For `CC[C@H](C)[C@H](NC(=O)[C@H](CO)NC(=O)[C@H](Cc1ccc(O)cc1)NC(=O)[C@H](CC(=O)O)NC(=O)[C@H](CO)NC(=O)[C@@H](NC(=O)[C@H](Cc1ccccc1)NC(=O)[C@@H](NC(=O)CNC(=O)[C@H](CCC(N)=O)NC(=O)C(C)(C)NC(=O)[C@@H](N)Cc1ccc(O)cc1)[C@@H](C)O)[C@@H](C)O)C(=O)N[C@@H](Cc1ccc(O)cc1)C(=O)N[C@@H](CC(C)C)C(=O)N[C@@H](CC(=O)O)C(=O)N[C@@H](CCCCN)C(=O)N[C@@H](CCCCNC(=O)COCCOCCNC(=O)COCCOCCNC(=O)CC[C@H](NC(=O)CCCCCCCCCCCCCCCCC(=O)O)C(=O)O)C(=O)N[C@@H](C)C(=O)N[C@@H](C)C(=O)NC(C)(C)C(=O)N[C@@H](CCC(=O)O)C(=O)N[C@@H](Cc1ccccc1)C(=O)N[C@H](C(=O)N[C@@H](CC(N)=O)C(=O)N[C@@H](Cc1c[nH]c2ccccc12)C(=O)N[C@@H](CC(C)C)C(=O)N[C@@H](CC(C)C)C(=O)N[C@@H](C)C(=O)NCC(=O)NCC(=O)N1CCC[C@H]1C(=O)N[C@@H](CO)C(=O)N[C@@H](CO)C(=O)NCC(=O)N[C@@H](C)C(=O)N1CCC[C@H]1C(=O)N1CCC[C@H]1C(=O)N1CCC[C@H]1C(=O)N[C@@H](CO)C(N)=O)C(C)C` [Compound No. 2] (H-Y[Aib]QGTFTSDYSIYLDKK([AEEA-AEEA-γGlu-C18 diacid])AA[Aib]EFVNWLLAGGPSSGAPPPS-NH2; N-terminus assumed), the EC50 turned out to be 7.1 pM on human GLP-1 receptor (setting [2]), 47.6 pM on human Gcg receptor (setting [2]) and 49.8 pM at human GIP receptor. This molecule had a half-life in data set [1] of 45 h.
Turning to `CC[C@H](C)[C@H](NC(=O)[C@H](CO)NC(=O)[C@H](Cc1ccc(O)cc1)NC(=O)[C@H](CC(=O)O)NC(=O)[C@H](CO)NC(=O)[C@@H](NC(=O)[C@H](Cc1ccccc1)NC(=O)[C@@H](NC(=O)CNC(=O)[C@H](CCC(N)=O)NC(=O)C(C)(C)NC(=O)[C@@H](N)Cc1ccc(O)cc1)[C@@H](C)O)[C@@H](C)O)C(=O)N[C@@H](Cc1ccc(O)cc1)C(=O)N[C@@H](CC(C)C)C(=O)N[C@@H](CC(=O)O)C(=O)N[C@@H](CCCCN)C(=O)N[C@@H](CCC(N)=O)C(=O)N[C@@H](C)C(=O)N[C@@H](C)C(=O)NC(C)(C)C(=O)N[C@@H](CCCCNC(=O)COCCOCCNC(=O)COCCOCCNC(=O)CC[C@H](NC(=O)CCCCCCCCCCCCCCCCC(=O)O)C(=O)O)C(=O)N[C@@H](Cc1ccccc1)C(=O)N[C@H](C(=O)N[C@@H](CC(N)=O)C(=O)N[C@@H](Cc1c[nH]c2ccccc12)C(=O)N[C@@H](CC(C)C)C(=O)N[C@@H](CC(C)C)C(=O)N[C@@H](C)C(=O)NCC(=O)NCC(=O)N1CCC[C@H]1C(=O)N[C@@H](CO)C(=O)N[C@@H](CO)C(=O)NCC(=O)N[C@@H](C)C(=O)N1CCC[C@H]1C(=O)N1CCC[C@H]1C(=O)N1CCC[C@H]1C(=O)N[C@@H](CO)C(N)=O)C(C)C` [Compound No. 3] (H-Y[Aib]QGTFTSDYSIYLDKQAA[Aib]K([AEEA-AEEA-γGlu-C18 diacid])FVNWLLAGGPSSGAPPPS-NH2; N-terminus assumed), the values for the EC50 at human GLP-1 receptor (setting [2]), on human Gcg receptor (setting [2]) and on human GIP receptor were 5.4 pM, 34.7 pM and 27.5 pM, respectively. Besides, in data set [1], the half-life is 33 h.
Consider `CC[C@H](C)[C@H](NC(=O)[C@H](CO)NC(=O)[C@H](Cc1ccc(O)cc1)NC(=O)[C@H](CC(=O)O)NC(=O)[C@H](CO)NC(=O)[C@@H](NC(=O)[C@H](Cc1ccccc1)NC(=O)[C@@H](NC(=O)CNC(=O)[C@H](CCC(N)=O)NC(=O)C(C)(C)NC(=O)[C@@H](N)Cc1ccc(O)cc1)[C@@H](C)O)[C@@H](C)O)C(=O)N[C@@H](Cc1ccc(O)cc1)C(=O)N[C@@H](CC(C)C)C(=O)N[C@@H](CC(=O)O)C(=O)N[C@@H](CCCCN)C(=O)N[C@@H](CCC(N)=O)C(=O)N[C@@H](C)C(=O)N[C@@H](C)C(=O)NC(C)(C)C(=O)N[C@@H](CCC(=O)O)C(=O)N[C@@H](Cc1ccccc1)C(=O)N[C@H](C(=O)N[C@@H](CC(N)=O)C(=O)N[C@@H](Cc1c[nH]c2ccccc12)C(=O)N[C@@H](CC(C)C)C(=O)N[C@@H](CC(C)C)C(=O)N[C@@H](C)C(=O)NCC(=O)NCC(=O)N1CCC[C@H]1C(=O)N[C@@H](CO)C(=O)N[C@@H](CO)C(=O)NCC(=O)N[C@@H](C)C(=O)N1CCC[C@H]1C(=O)N1CCC[C@H]1C(=O)N1CCC[C@H]1C(=O)N[C@@H](CO)C(=O)N[C@@H](CCCCNC(=O)COCCOCCNC(=O)COCCOCCNC(=O)CC[C@H](NC(=O)CCCCCCCCCCCCCCCCC(=O)O)C(=O)O)C(N)=O)C(C)C` [Compound No. 59, reference compound] (H-Y[Aib]QGTFTSDYSIYLDKQAA[Aib]EFVNWLLAGGPSSGAPPPSK([AEEA-AEEA-γGlu-C18 diacid])-NH2; N-terminus assumed), for which the “hGLP-1R CRE Luc EC50 (pM)” value on human GLP-1 receptor (setting [2]) is on record as “lower potency”. Moreover, at human Gcg receptor (setting [2]), the “hGcgR CRE Luc EC50 (pM)” value is given as “lower potency”. Moreover, the “hGIPR CRE Luc EC50 (pM)” value on human GIP receptor is listed as “lower potency”.
For `CC[C@H](C)[C@H](NC(=O)[C@H](CO)NC(=O)[C@H](Cc1ccc(O)cc1)NC(=O)[C@H](CC(=O)O)NC(=O)[C@H](CO)NC(=O)[C@@H](NC(=O)[C@H](Cc1ccccc1)NC(=O)[C@@H](NC(=O)CNC(=O)[C@H](Cc1c[nH]cn1)NC(=O)C(C)(C)NC(=O)[C@@H](N)Cc1c[nH]cn1)[C@@H](C)O)[C@@H](C)O)C(=O)N[C@@H](Cc1ccc(O)cc1)C(=O)N[C@@H](CC(C)C)C(=O)N[C@@H](CCC(=O)O)C(=O)N[C@@H](CCCCNC(=O)[C@@H](N)CCCCNC(=O)[C@@H](N)CCCCNC(=O)CC[C@H](NC(=O)CCCCCCCCCCCCCCCCC(=O)O)C(=O)O)C(=O)N[C@@H](CCCCN)C(=O)N[C@@H](Cc1ccc(O)cc1)C(=O)N[C@@H](C)C(=O)NC(C)(C)C(=O)N[C@@H](CCC(=O)O)C(=O)N[C@@H](Cc1ccccc1)C(=O)N[C@H](C(=O)N[C@@H](CCC(N)=O)C(=O)N[C@@H](Cc1c[nH]c2ccccc12)C(=O)N[C@@H](CC(C)C)C(=O)N[C@@H](CC(C)C)C(=O)N[C@@H](CCC(=O)O)C(=O)NCC(=O)NCC(=O)N1CCC[C@H]1C(=O)N[C@@H](CO)C(=O)N[C@@H](CO)C(=O)NCC(=O)N[C@@H](C)C(=O)N1CCC[C@H]1C(=O)N1CCC[C@H]1C(=O)N1CCC[C@H]1C(=O)N[C@@H](CO)C(N)=O)C(C)C` [Compound No. 38] (H-H[Aib]HGTFTSDYSIYLEK([εLys-εLys-γGlu-C18 diacid])KYA[Aib]EFVQWLLEGGPSSGAPPPS-NH2), the EC50 was determined as 2.8 pM on human GLP-1 receptor (Table 2) and 6.4 pM at human Gcg receptor (Table 2).
In the case of `CC[C@H](C)[C@H](NC(=O)[C@H](CO)NC(=O)[C@H](Cc1ccc(O)cc1)NC(=O)[C@H](CC(=O)O)NC(=O)[C@H](CO)NC(=O)[C@@H](NC(=O)[C@H](Cc1ccccc1)NC(=O)[C@@H](NC(=O)CNC(=O)[C@H](Cc1c[nH]cn1)NC(=O)C(C)(C)NC(=O)[C@@H](N)Cc1c[nH]cn1)[C@@H](C)O)[C@@H](C)O)C(=O)N[C@@H](CC(C)C)C(=O)N[C@@H](CC(C)C)C(=O)N[C@@H](CCC(=O)O)C(=O)N[C@@H](CCCCNC(=O)[C@@H](N)CCCCNC(=O)[C@@H](N)CCCCNC(=O)CC[C@H](NC(=O)CCCCCCCCCCCCCCCCC(=O)O)C(=O)O)C(=O)N[C@@H](CCC(N)=O)C(=O)N[C@@H](C)C(=O)N[C@@H](C)C(=O)N[C@@H](Cc1c[nH]cn1)C(=O)N[C@@H](CCC(=O)O)C(=O)N[C@@H](Cc1ccccc1)C(=O)N[C@H](C(=O)N[C@@H](CCC(N)=O)C(=O)N[C@@H](Cc1c[nH]c2ccccc12)C(=O)N[C@@H](CC(C)C)C(=O)N[C@@H](CC(C)C)C(=O)N[C@@H](CCC(=O)O)C(=O)NCC(=O)NCC(=O)N1CCC[C@H]1C(=O)N[C@@H](CO)C(=O)N[C@@H](CO)C(=O)NCC(=O)N[C@@H](C)C(=O)N1CCC[C@H]1C(=O)N1CCC[C@H]1C(=O)N1CCC[C@H]1C(=O)N[C@@H](CO)C(=O)O)C(C)C` [Compound No. 56] (H-H[Aib]HGTFTSDYSILLEK([εLys-εLys-γGlu-C18 diacid])QAAHEFVQWLLEGGPSSGAPPPS-OH), at human Gcg receptor (Table 2), the 50% effective concentration (EC50) stood at 6.4 pM.
